# Source: patent publication US10160948B2, “Pluripotent embryonic-like stem cells, compositions, methods and uses thereof” (ABT HOLDING COMPANY, priority 1999, dated 2018)
# System: human mesenchymal stem cells
# Experiment: Insulin/dexamethasone analysis to identify progenitor and pluripotent cells (morphology)
# Assay type: cell-based
# Procedure: Aliquots of CM-SkM, CF-SkM, NHDF, PAL#3, and PAL#2 cells were thawed and plated individually at 10,000 cells per well in 1% gelatin-coated 24-well plates [Corning, Corning, N.Y.] utilizing PM-B. After 24 hr PM-B was removed and replaced with either control medium, insulin testing medium, or dexamethasone testing medium. Control medium consisted of 98% (v/v) Opti-MEM containing 0.01 mM β-mercapto-ethanol, 1% (v/v) HS3, and 1% antibiotic-antimycotic solution. Insulin testing medium consisted of control medium containing 2 μg/ml insulin [Sigma]. Dexmethasone testing medium was composed of 98% Opti-MEM, 0.01 mM β-mercaptoethanol, 1% serum [HS3, HS9 (horse serum, lot number 90H-0701, Sigma) or FBS (fetal bovine serum, lot no. 3000L, Atlanta Biologicals, Norcross, Ga.)] and 1% antibiotic-antimycotic solution. […]
# Discernible changes in phenotypic expression of the cells were assayed morphologically. These morphological tissue cellular types were identical to those previously noted in avian and mouse mesenchymal stem cells incubated with insulin or dexamethasone and extensively analyzed by histochemical and immunochemical procedures (Young et al., 1995; Rogers et al., 1995; Young et al., 1993; Young, 1999; Young et al., 1998). […]
# Discernible changes in phenotypic expression of the putative mesenchymal stem cells were determined using morphological criteria. […]
substance,measurement,value
insulin,effect on phenotypic expression at 80 cell doublings,had no effect on the cells
